Marks after values point to notes of the source that are not given here. Bridge positions count the residues as written; N and C are the ends. Ends that are not written are not given here. I, II: the chains in the order shown.
Tests used:
[1] = cited from earlier work
From the text: Table 2 Thermodynamics of AMP Insertion in PC Membranes According to the Wimley-White Hydrophobicity Scale | column: % helix in PC

[2] = ANTS/DPX leakage of POPE/POPG LUVs; format: biochemical; conditions: for Leakage: POPE/POPG LUVs, lipid 50 μM, pH 7.4, 37°C
Procedure: (§1) Large unilamellar vesicles (LUVs) of ∼100 nm size were prepared and assayed for AMP-induced fluorescence leakage as described previously ([23]). Intrinsic lipid curvatures were determined using a SAXSpace small-angle x-ray camera (Anton Paar, Graz, Austria) applying previously developed procedures ([24]). Monte Carlo (MC) simulations were performed using the Metropolis scheme and computationally efficient implicit-solvent coarse-grained models. Lipids were described by a three-bead model developed by Cooke and Deserno ([25]), and the peptide was modeled by a patchy spherocylinder ([26]). Free-energy calculations for peptide translocation were performed using the Wang-Landau method ([27]). For details of experimental and simulation procedures, see the Supporting Material. […]
Lipid films (20 mg total lipid) for dye-release experiments were prepared by mixing the appropriate amounts of dissolved phospholipids before evaporation of solvents under a stream of nitrogen and stored in vacuum overnight. After addition of Hepes buffer containing the fluorophor/quencher ANTS/DPX (10 mM Hepes, 68 mM NaCl, 12.5 mM ANTS, 45 mM DPX, pH 7.4), formation of lipid vesicles was achieved by equilibration at 15°C above the lipid’s melting temperature and intermittent vigorous vortex mixing. PE/PG-mixtures were additionally homogenized by six freeze/thaw-cycles. Large unilamellar vesicles (LUVs) were obtained by 25 cycles of extrusion of the hydrated liposomes through a polycarbonate filter (Millipore-IsoporeTM, Merck, Vienna) of 0.1 µm pore size above the lipid’s melting temperature. Non-encapsulated fluorophore and quencher were removed by size-exclusion chromatography using SephadexTM G-75 (Sigma-Aldrich, Vienna) gel as described earlier (1). LUVs were eluted with Hepes buffer (10 mM Hepes, 140 mM NaCl, pH 7.4). Liposomal lipids were quantified by the determination of lipid phosphorus according the method described by (2). The final LUV concentration for dye-release experiments was adjusted to 50 µM in Hepes buffer (10 mM Hepes, 140 mM NaCl, pH 7.4). […]
Leakage of the aqueous content of ANTS/DPX-loaded LUVs upon incubation with peptides was determined according to (9) and as detailed previously (1). Briefly, 2 ml of LUV suspension was filled into quartz cuvettes and equilibrated at 37°C for 5 minutes. Incremental amounts of peptide solutions prepared in Hepes buffer were added to the LUV suspension with µ-pipettes and mixed using a magnetic stirrer to achieve final peptide concentrations ranging from 0.016 - 1 μM, corresponding to peptide-to-lipid molar ratios from 1:3200 to 1:50. Fluorescence emission was recorded 5 minutes before and after the addition of peptides on a Cary Eclipse Fluorescence Spectrophotometer (Varian Inc., now Agilent Technologies, California, US) using an excitation wavelength of λex = 360 nm and an emission wavelength λem = 530 nm. The slit widths for excitation and emission monochromators were set to 10 nm.
(§2) Percentage of leakage was calculated from the fraction of the leakage (10) […]
(§3) where F is the measured fluorescence, F0 is the initial fluorescence without peptide, and Fmax is the fluorescence corresponding to 100% leakage gained by addition of 1% Triton X-100. […]
In order to verify the dimeric or monomeric state of peptides, 2 µg of peptides were dissolved in loading buffer without DTT and separated by a one-dimensional SDS-PAGE using 5 % stacking and 18 % separating gels according to the method of Laemmli (11). […]

[3] = system: E. coli K12; assay: MIC, inhibition of bacterial growth (turbidimetric, Bioscreen C); format: cell-based, Escherichia coli; conditions: E. coli K12, Mueller-Hinton broth without Ca2+, 37°C, no increment of turbidity after 48 h, CLSI guidelines
Procedure: To study the effect of magainins on metabolically active bacteria, we assessed the antimicrobial activity of the peptides by determining the MIC values according to Clinical and Laboratory Standards Institute (CLSI, formerly National Committee for Clinical Laboratory Standards) guidelines.
Inhibition of bacterial growth by frog peptides was determined using an automated turbidimetric-based system (Bioscreen C, Labsystem, Helsinki, Finland), which measures absorbance of cell cultures in 100-well plates at regular time intervals (λ = 580 nm). Assays were performed in Mueller-Hinton (MH) broth without Ca2+ (18) using Bioscreen polystyrene honeycomb 100-well plates. Briefly, serial dilutions of the AMPs or control antibiotics (gentamicin and ampicillin B) were made in MH broth and dispensed with a multi-pipette into […]
polystyrene honeycomb 100-well plates. E. coli K12 cells grown for 18–20 h on agar plates were suspended in saline adjusting the turbidity to an optical density at λ=565 nm (OD565) of 0.5 (~1 × 10^8 cells/mL) using a DEN-1B densitometer (Grant Instruments, Cambridge, UK).
A fifty-fold dilution of this E. coli suspension prepared in MH broth was mixed with 50 µL (1:1 volume ratio) of a given peptide solution by three times up and down pipetting. Resulting cell suspensions were grown at 37°C with continuous, low amplitude shaking. The turbidity was measured in intervals of 5 minutes (filter bandwidth: λ= 420 – 580 nm). MIC was considered as the minimum concentration of peptide that inhibited any increment of turbidity […]
2011. Studies on lactoferricin-derived Escherichia coli membrane-active peptides reveal differences in the mechanism of N-acylated versus nonacylated peptides. J Biol Chem […]
2. Broekhuyse, R. M. 1968. Phospholipids in tissues of the eye. […]
vinyl-ether phospholipids. Biochim Biophys Acta 152:307–315.
Chemistry and physics of lipids 154:64–67.
8. Israelachvili, J. N. 2011. Intermolecular and surface forces, 3rd ed. Academic Press, […]

[4] = ANTS/DPX leakage of POPC LUVs; format: biochemical; conditions: within studied concentration range 0.016-1 μM, lipid 50 μM, pH 7.4, 37°C, three independent measurements
Procedure: as §1
(§4) Lipid films (20 mg total lipid) for dye-release experiments were prepared by mixing the appropriate amounts of dissolved phospholipids before evaporation of solvents under a stream of nitrogen and stored in vacuum overnight. […] Liposomal lipids were quantified by the determination of lipid phosphorus according the method described by (2). […]
(§5) Leakage of the aqueous content of ANTS/DPX-loaded LUVs upon incubation with peptides was determined according to (9) and as detailed previously (1). […]
as §2

[5] = cited from earlier work; remark: listed apart in the source
From the text: Intriguingly, however, cytoplasmic membranes of Gram-negative bacteria are enriched in lipids with negative intrinsic curvature, such as phosphatidylethanolamine (PE) ([20]). This prompted us to correlate membrane-permeabilizing activities of magainin monomers and dimers in different lipid-only model systems with various intrinsic curvatures J0 determined from small-angle x-ray scattering (SAXS). In particular, we studied the activity of L18W-PGLa and MG2a, as well as their analogs containing GGC linkers, which were used to form the L18W-PGLa-MG2a hybrid peptide (Fig. 1). The choice of L18W-PG ...

[6] = ANTS/DPX leakage of POPC/POPG LUVs; format: biochemical; conditions: 1 μM peptide, lipid 50 μM, pH 7.4, 37°C, three independent measurements
Procedure: as §1, §4, §5, §2

[7] = ANTS/DPX leakage of lyso-PE/POPE/POPG LUVs; format: biochemical; conditions: 1 μM peptide, lipid 50 μM, pH 7.4, 37°C, three independent measurements
Procedure: as §1, §4, §5, §2

[8] = ANTS/DPX leakage of POPC/Chol LUVs; format: biochemical; conditions: lipid 50 μM; for Leakage: dimers and mixture, highest concentration studied (1 μM), pH 7.4, 37°C
Procedure: as §1
Lipid films (20 mg total lipid) for dye-release experiments were prepared by mixing the appropriate amounts of dissolved phospholipids before evaporation of solvents under a stream of nitrogen and stored in vacuum overnight. After addition of Hepes buffer containing the fluorophor/quencher ANTS/DPX (10 mM Hepes, 68 mM NaCl, 12.5 mM ANTS, 45 mM DPX, pH 7.4), formation of lipid vesicles was achieved by equilibration at 15°C above the lipid’s melting temperature and intermittent vigorous vortex mixing. […] Liposomal lipids were quantified by the determination of lipid phosphorus according the method described by (2). […]
Leakage of the aqueous content of ANTS/DPX-loaded LUVs upon incubation with peptides was determined according to (9) and as detailed previously (1). […] Fluorescence emission was recorded 5 minutes before and after the addition of peptides on a Cary Eclipse Fluorescence Spectrophotometer (Varian Inc., now Agilent Technologies, California, US) using an excitation wavelength of λex = 360 nm and an emission wavelength λem = 530 nm. […]
as §2, §3

[9] = individual peptides at concentrations above 0.25 μM up to 1 μM (remained at the same level), three independent measurements
[10] = dimers, plateau/final value at high peptide concentration (up to 1 μM)

GIGKFLHSAKKFGKAFVGEIMNS-NH2 [MG2a]
% helix in PC [1]: 83 ^a % | Leakage [2, 9]: ≤ 6% | MIC [3]: 62.5 µg/mL

GMASKAGAIAGKIAKVAWKAL-NH2 [L18W-PGLa]
Maximal leakage [4]: ≤ 10% | % helix in PC [1]: 72 ^b % | Dye release from lipid vesicles compared to native PGLa [5]: almost identical to that induced by native PGLa | Leakage [2, 9]: ≤ 6% | Leakage [6]: full LUV leakage | Leakage [7]: full LUV leakage | MIC [3]: ~31.25 µg/mL

I: GIGKFLHSAKKFGKAFVGEIMNSGGC-NH2 / II: GIGKFLHSAKKFGKAFVGEIMNSGGC-NH2 (disulfide I:26-II:26 (inferred)) [MG2a homodimers]
Leakage [8]: not able to induce significant dye release | Leakage [2, 10]: ~60% | MIC [3]: 7.8 µg/mL

I: GMASKAGAIAGKIAKVAWKALGGC-NH2 / II: GMASKAGAIAGKIAKVAWKALGGC-NH2 (disulfide I:24-II:24) [L18W-PGLa homodimers]
Leakage [8]: ~74% | Peptide concentration above which active (leakage) [8]: > 0.1 µM | Leakage [2, 10]: ~100% | Permeabilization capabilities after DTT reduction ([2]; POPE/POPG vesicles, DTT (40 μM) added to peptide solution before mixing with LUVs): identical with that of L18W-PGLa peptide | MIC [3]: ~7.8 µg/mL

From paper PMC5937145, “Synergism of Antimicrobial Frog Peptides Couples to Membrane Intrinsic Curvature Strain” (Biophysical Journal, 2018)
